Measured values from ChEMBL document CHEMBL3885881, “DrugMatrix”.

Species on record: Rattus norvegicus
Test: DrugMatrix - Regimen: Daily Repeat
Assay type: toxicity, organism-based, Sprague-Dawley
Parameters: regimen Daily Repeat, gender Male, age 6-8 weeks
Details: in vivo, po, route oral GAVAGE, vehicle 100 % WATER; for ABSOLUTE BASOPHIL / ABSOLUTE EOSINOPHIL / ABSOLUTE LYMPHOCYTE / ABSOLUTE MONOCYTE / ABSOLUTE SEGMENTED NEUTROPHIL / BASOPHIL / EOSINOPHIL / ERYTHROCYTE COUNT / HEMATOCRIT / HEMOGLOBIN / LEUKOCYTE COUNT / LYMPHOCYTE / MEAN CORPUSCULAR HEMOGLOBIN / MEAN CORPUSCULAR HEMOGLOBIN CONCENTRATION / MEAN CORPUSCULAR VOLUME / MONOCYTE / NEUTROPHIL / NUCLEATED RED BLOOD CELLS / PLATELET COUNT: tissue Blood; for ALANINE AMINOTRANSFERASE / ALBUMIN / ALKALINE PHOSPHATASE / ASPARTATE AMINOTRANSFERASE / BLOOD UREA NITROGEN / CARBON DIOXIDE / CHLORIDE / CHOLESTEROL / CREATINE PHOSPHOKINASE / CREATININE / GLUCOSE / LACTATE DEHYDROGENASE / LIPASE / PHOSPHORUS / POTASSIUM / SODIUM / TOTAL BILIRUBIN / TOTAL PROTEIN / URIC ACID: tissue Plasma
[1] = 14 mg/kg, 120 h, dose level Low, time 5 day
[2] = 1000 mg/kg, 72 h, dose level High, time 3 day
[3] = 1000 mg/kg, 120 h, dose level High, time 5 day

C[C@H]1c2cccc(O)c2C(=O)C2=C(O)[C@]3(O)C(=O)C(C(N)=O)=C(O)[C@@H](N(C)C)[C@@H]3[C@@H](O)[C@@H]21.O [DOXYCYCLINE]
ABSOLUTE BASOPHIL [1]: 0 CELLS/uL | ABSOLUTE EOSINOPHIL [1]: 22.33 CELLS/uL | ABSOLUTE LYMPHOCYTE [1]: 6462.67 CELLS/uL | ABSOLUTE MONOCYTE [1]: 105.33 CELLS/uL | ABSOLUTE SEGMENTED NEUTROPHIL [1]: 909.67 CELLS/uL | BASOPHIL [1]: 0% | EOSINOPHIL [1]: 0.33% | ERYTHROCYTE COUNT [1]: 5.81 x10E6/uL | HEMATOCRIT [1]: 36.47% | HEMOGLOBIN [1]: 13.87 G/DL | LEUKOCYTE COUNT [1]: 7.5 x10E3/uL | LYMPHOCYTE [1]: 86.67% | MEAN CORPUSCULAR HEMOGLOBIN [1]: 23.9 pg | MEAN CORPUSCULAR HEMOGLOBIN CONCENTRATION [1]: 38.1 G/DL | MEAN CORPUSCULAR VOLUME [1]: 62.77 fL | MONOCYTE [1]: 1.33% | NEUTROPHIL [1]: 11.67% | NUCLEATED RED BLOOD CELLS [1]: 0.33 /100WBC | PLATELET COUNT [1]: 1055 x10E3/uL | ALANINE AMINOTRANSFERASE [1]: 56.67 u/L | ALBUMIN [1]: 4.23 G/DL | ALKALINE PHOSPHATASE [1]: 411.33 u/L | ASPARTATE AMINOTRANSFERASE [1]: 92 u/L | BLOOD UREA NITROGEN [1]: 17.67 mg/dL | CARBON DIOXIDE [1]: 32 mmol/L | CHLORIDE [1]: 101.67 MEQ/L | CHOLESTEROL [1]: 67 mg/dL | CREATINE PHOSPHOKINASE [1]: 551.33 u/L | CREATININE [1]: 0.19 mg/dL | GLUCOSE [1]: 154.67 mg/dL | LACTATE DEHYDROGENASE [1]: 117 u/L | LIPASE [1]: 11 u/L | PHOSPHORUS [1]: 11.33 mg/dL | POTASSIUM [1]: 6.02 MEQ/L | SODIUM [1]: 147 MEQ/L | TOTAL BILIRUBIN [1]: 0.1 mg/dL | TOTAL PROTEIN [1]: 6.37 G/DL | URIC ACID [1]: 0.8 mg/dL | ABSOLUTE BASOPHIL [2]: 0 CELLS/uL | ABSOLUTE EOSINOPHIL [2]: 0 CELLS/uL | ABSOLUTE LYMPHOCYTE [2]: 7696.67 CELLS/uL | ABSOLUTE MONOCYTE [2]: 0 CELLS/uL | ABSOLUTE SEGMENTED NEUTROPHIL [2]: 736.67 CELLS/uL | BASOPHIL [2]: 0% | EOSINOPHIL [2]: 0% | ERYTHROCYTE COUNT [2]: 5.23 x10E6/uL | HEMATOCRIT [2]: 32.1% | HEMOGLOBIN [2]: 12.57 G/DL | LEUKOCYTE COUNT [2]: 8.43 x10E3/uL | LYMPHOCYTE [2]: 92.33% | MEAN CORPUSCULAR HEMOGLOBIN [2]: 24.07 pg | MEAN CORPUSCULAR HEMOGLOBIN CONCENTRATION [2]: 39.17 G/DL | MEAN CORPUSCULAR VOLUME [2]: 61.4 fL | MONOCYTE [2]: 0% | NEUTROPHIL [2]: 7.67% | NUCLEATED RED BLOOD CELLS [2]: 0 /100WBC | PLATELET COUNT [2]: 1333.67 x10E3/uL | ALANINE AMINOTRANSFERASE [2]: 59.33 u/L | ALBUMIN [2]: 4.03 G/DL | ALKALINE PHOSPHATASE [2]: 294.67 u/L | ASPARTATE AMINOTRANSFERASE [2]: 81 u/L | BLOOD UREA NITROGEN [2]: 14.67 mg/dL | CARBON DIOXIDE [2]: 32.33 mmol/L | CHLORIDE [2]: 103 MEQ/L | CHOLESTEROL [2]: 89 mg/dL | CREATINE PHOSPHOKINASE [2]: 186 u/L | CREATININE [2]: 0.18 mg/dL | GLUCOSE [2]: 146 mg/dL | LACTATE DEHYDROGENASE [2]: 161.33 u/L | LIPASE [2]: 12.33 u/L | PHOSPHORUS [2]: 10.9 mg/dL | POTASSIUM [2]: 5.89 MEQ/L | SODIUM [2]: 146.35 MEQ/L | TOTAL BILIRUBIN [2]: 0.0667 mg/dL | TOTAL PROTEIN [2]: 5.97 G/DL | URIC ACID [2]: 1.2 mg/dL | ABSOLUTE BASOPHIL [3]: 0 CELLS/uL | ABSOLUTE EOSINOPHIL [3]: 19.67 CELLS/uL | ABSOLUTE LYMPHOCYTE [3]: 6922.33 CELLS/uL | ABSOLUTE MONOCYTE [3]: 67.67 CELLS/uL | ABSOLUTE SEGMENTED NEUTROPHIL [3]: 1023.67 CELLS/uL | BASOPHIL [3]: 0% | EOSINOPHIL [3]: 0.33% | ERYTHROCYTE COUNT [3]: 5.99 x10E6/uL | HEMATOCRIT [3]: 36.73% | HEMOGLOBIN [3]: 14.13 G/DL | LEUKOCYTE COUNT [3]: 8.03 x10E3/uL | LYMPHOCYTE [3]: 85.67% | MEAN CORPUSCULAR HEMOGLOBIN [3]: 23.63 pg | MEAN CORPUSCULAR HEMOGLOBIN CONCENTRATION [3]: 38.53 G/DL | MEAN CORPUSCULAR VOLUME [3]: 61.37 fL | MONOCYTE [3]: 1% | NEUTROPHIL [3]: 13% | NUCLEATED RED BLOOD CELLS [3]: 0 /100WBC | PLATELET COUNT [3]: 1104.67 x10E3/uL | ALANINE AMINOTRANSFERASE [3]: 56 u/L | ALBUMIN [3]: 3.97 G/DL | ALKALINE PHOSPHATASE [3]: 312 u/L | ASPARTATE AMINOTRANSFERASE [3]: 84.33 u/L | BLOOD UREA NITROGEN [3]: 21 mg/dL | CARBON DIOXIDE [3]: 32 mmol/L | CHLORIDE [3]: 99.67 MEQ/L | CHOLESTEROL [3]: 87.33 mg/dL | CREATINE PHOSPHOKINASE [3]: 239.67 u/L | CREATININE [3]: 0.26 mg/dL | GLUCOSE [3]: 138 mg/dL | LACTATE DEHYDROGENASE [3]: 100.67 u/L | LIPASE [3]: 11.33 u/L | PHOSPHORUS [3]: 10.53 mg/dL | POTASSIUM [3]: 6.12 MEQ/L | SODIUM [3]: 146.5 MEQ/L | TOTAL BILIRUBIN [3]: 0.13 mg/dL | TOTAL PROTEIN [3]: 5.87 G/DL | URIC ACID [3]: 0.97 mg/dL
